Laboratory results taken from article PMC8298375 (Naunyn-Schmiedeberg's Archives of Pharmacology, 2021).
Like-named read-outs stand apart in the source and are kept apart here.

What was measured:
Assay type in all cases: in vivo, Wistar rats
[1] = system: scopolamine-induced amnesia rats; assay: Morris water maze test, scopolamine-induced amnesia (acute model); conditions: scopolamine 1 mg/kg i.p., Mean ± SEM; for Escape latency: test 15 min after treatment
Experimental: (§1) In the acute model, the rats were trained for Morris water maze (MWM) and passive avoidance test (PAT) tasks in the first 4 days. On the 5th day, 30 min after scopolamine administration, respective treatments were given to all the groups. Fifteen minutes thereafter, the test trials were conducted in MWM and PAT.
A modified Morris water maze test was used (Nampoothiri [2017]). The pool was positioned in the middle of a dimly lit testing room with distant visual clues that could be used by rats for spatial orientation. The maze consisted of a circular water pool (140 × 45 cm) divided into four equally sized quadrants (NE, SE, SW, and NW) by two imaginary diagonal lines running across the center of the pool. The pool was filled with water maintained at a temperature of 23 ± 2 °C. In the NE quadrant (target quadrant) equidistant from the center and edge of the pool, a platform of 25-cm height and 10-cm diameter was invisibly placed submerged 1 cm below the water surface. Rats were gently placed in each quadrant facing the wall and trained to locate the hidden black platform, and the trial was terminated when the rat reached the platform or after 60 s. Accordingly, rats were subjected to one session of four trials per day for four consecutive days. All rats were left on the platform for 30 s and then removed and towel dried. Inter-trial interval was kept a constant 180 s throughout the study. In the probe trial, platform was removed, and rats were allowed to swim for a 60-s trial period. Data was collected in the form of escape latencies to find the platform; percent of time spent over the target quadrant.

[2] = Pharmacokinetic study in scopolamine-induced amnesic rats (plasma); conditions: for Absolute F: absolute bioavailability; for Cl_F_obs: clearance; for DN Cmax: dose-normalised Cmax; for Vz_F_obs: volume of distribution
Experimental: Samples were then centrifuged at 10,000 rpm for 5 min, and plasma was stored at − 70 °C until analysis.
Briefly, to an aliquot of 100 µL of rat plasma, 10 µL of IS (1 µg/mL) was added and vortexed for 30 s. Then, 1 mL of TBME tertiary methyl butyl ether) was added and vortexed for 10 min, thereafter centrifuged at 10,000 rpm for 5 min. From the supernatant, 0.9 mL of organic solvent was aspirated and evaporated in a turbo evaporator (Zymark, Hopkinton, MA, USA) at 50 ± 2 °C under the stream of nitrogen. The dried residue was reconstituted with 150 µL of mobile phase, and 50 µL was injected for the HPLC analysis. A full validation according to the US-FDA guidelines was performed in rat plasma. Plasma samples were analyzed by previously validated HPLC with fluorescence detection method (Arumugam [2011]).
HPLC analysis was carried out on Shimadzu LC-20AD Prominence (Shimadzu Corporation, Kyoto, Japan) equipped with LC-20AD pump, RF-10A-XL fluorescence detector, column oven (CTO-10AS VP), autosampler SIL-20AC HT, and LC solution version 1.24 SP1. The column oven temperature was maintained at 25 °C. The chromatographic separation was achieved by Intersil, ODS-3 V, C18 (250 × 4.6 mm, 5 µm) column (GL Sciences Inc., Japan). Isocratic elution was performed with ammonium acetate buffer (20 mM, pH 4.5) and acetonitrile 74:26 (v/v) as mobile phase. The flow rate was maintained at 1 mL/min, and the injection volume was 50 µL. Fluorimetric detection was used, and excitation and emission wavelength were 220 nm and 293 nm, respectively. The sensitivity of the detector was “medium”, and the response kept at 3. Venlafaxine (IS) was prepared separately in methanol to yield primary standard solutions with a concentration of 1 mg/mL.
The pharmacokinetic parameters were calculated using non-compartmental analysis, PK solution 2.1software (Summit Research Services, Montrose, Colorado, USA). The area under the curve (AUC) from zero to infinity is calculated using the trapezoidal method. The terminal elimination rate constant (β) was obtained by plotting log-linear concentration versus time; the corresponding half-life (t1/2β) was calculated by 0.693/β. […] The clearance (CL) and volume of distribution (Vd) were calculated as follows: CL=Dose/AUC0-∞,Vd(apparent)=CL/β

[3] = system: scopolamine-induced amnesia rats; assay: Locomotor activity (photoactometer), scopolamine-induced amnesia; conditions: scopolamine model, Mean ± SEM, photo beam counts for 5 min
Experimental: as §1
Locomotor activity was assessed in animals using a digital photoactometer (INCO, India) which contains a cage that is 30-cm long and 30-cm deep with a wire mesh at the bottom. The apparatus was placed in a dark, light, and sound attenuated testing room. Before the locomotor task, animals were placed individually in the activity meter for 3 min for habituation. Then, the ambulatory movements were recorded for 5 min and expressed in terms of total photo beam counts for 5 min per animal.

[4] = Wistar, rat, oral (ORSM), other: intranasal (INRSM)

Q: What does the source list for `CCN(C)C(=O)Oc1cccc([C@H](C)N(C)C)c1` [INRSM, rivastigmine]?
A: Peripheral swim time ([1]; listed as SCP + INRSM): 34.22 ± 0.74 s; Escape latency ([1]; listed as SCP + INRSM): 3.11 ± 0.36 s; MRT [2]: 32.12 ± 16.46 min; Cmax ([2]; Wistar, rat, inhaled or intranasal, 2 mg/kg): 994 ± 471 ng/mL; Tmax [2, 4]: 5 min; half-life [2, 4]: 30.5 ± 10.8 min; k el [2, 4]: 0.000378 s⁻¹; AUC(0-inf) ([2]; Wistar, rat, other: intranasal, 2 mg/kg): 330 ng·h/mL; Absolute F [2]: 65.44 ± 14.57%; Cl_F_obs [2]: 100.95 ± 36.47 mL/min; DN Cmax [2]: 497.23 ± 235.52 ng/mL; Vz_F_obs [2]: 4.45 ± 1.72 L; Score on actophotometer ([3]; listed as SCP + INRSM): 296.50 ± 17.68

Q: With `CCN(C)C(=O)Oc1cccc([C@H](C)N(C)C)c1` [ORSM, rivastigmine] as the molecule, how does the Escape latency ([1]; listed as SCP + ORSM) read?
A: Its Escape latency is 3.89 ± 0.44 s.

Q: And the MRT ([2]; Wistar, rat, oral (ORSM), other: intranasal (INRSM), read-out: MRT (converted))?
A: The MRT was 27.6 min.

Q: What about the clearance ([2]; Wistar, rat, oral, 2.5 mg/kg, read-out: clearance rate) of the same molecule?
A: Its clearance is 1500 ± 760 mL/min.

Q: What about the Vd ([2]; Wistar, rat, oral, 2.5 mg/kg, read-out: volume of distribution) of the same molecule?
A: The Vd was 29.2 ± 14.3 L/kg.

Q: And the Tmax ([2]; Wistar, rat, po)?
A: The Tmax was 15 min.

Q: What about the half-life ([2]; Wistar, rat, po) of the same molecule?
A: Its half-life is 13.5 ± 5.79 min.

Q: And the k el ([2]; Wistar, rat, po)?
A: The k el was 0.000857 s⁻¹.

Q: And the AUC(0-inf) ([2]; Wistar, rat, po, 2.5 mg/kg)?
A: Its AUC(0-inf) is 27.7 ng·h/mL.

Q: What about the Cmax ([2]; Wistar, rat, po, 2.5 mg/kg) of the same molecule?
A: The Cmax was 56.3 ± 27.1 ng/mL.

Q: What about the “Absolute F” value [2] of the same molecule?
A: The value was 4.39 ± 1.82%.

Q: What about the “Absolute F” value ([2]; listed as oral rivastigmine) of the same molecule?
A: Its value is 4.39 ± 1.82%.

Q: What about the Cl_F_obs [2] of the same molecule?
A: Its Cl_F_obs is 1502.59 ± 763.25 mL/min.

Q: What about the “DN Cmax” value [2] of the same molecule?
A: The value was 22.51 ± 10.82 ng/mL.

Q: And the Vz_F_obs [2]?
A: The Vz_F_obs was 29.23 ± 14.35 L.

Q: And the Score on actophotometer ([3]; listed as SCP + ORSM)?
A: The Score on actophotometer was 238.16 ± 20.88.
